Data taken from the supplement of paper PMC5908809.

What was measured:
[1] = test system: normal NK cells expanded with K562-aAPC; assay: drug sensitivity score (DSS) (DSS units); higher = more sensitive; extreme values may be limits of the assay; conditions: 72 h; IL-2 2.5 ng/mL
Experimental: (§1)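 Drug sensitivity and resistance testing on K562-aAPC-expanded normal NK cells: 5 concentrations (10-fold steps over a 10,000-fold range), 72 h at 37 °C, viability by CellTiter-Glo normalised to DMSO and benzethonium chloride controls; DSS from the fitted curve.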

[2] = test system: normal NK cells expanded with K562-aAPC; assay: percent inhibition of viability; higher = more inhibition; conditions: 72 h, IL-2 2.5 ng/mL
Experimental: as §1

[3] = test system: NK-YS (IL-2 2.5 ng/mL); assay: drug sensitivity score (DSS) (DSS units); higher = more sensitive; extreme values may be limits of the assay; conditions: 72 h
[4] = test system: normal primary NK cells, pool 2 (3 donors) (IL-2 2.5 ng/mL); assay: as above; conditions: 72 h
[5] = test system: normal primary NK cells, pool 1 (3 donors) (IL-2 2.5 ng/mL); assay: as above; conditions: 72 h
[6] = test system: SNK-6 (IL-2 2.5 ng/mL); assay: as above; conditions: 72 h
[7] = test system: KHYG-1 (IL-2 2.5 ng/mL); assay: as above; conditions: 72 h
[8] = test system: DERL-7 (IL-2 2.5 ng/mL); assay: as above; conditions: 72 h
[9] = test system: normal primary NK cells, pool 3 (3 donors) (IL-2 2.5 ng/mL); assay: as above; conditions: 72 h
[10] = test system: NKL (IL-2 2.5 ng/mL); assay: as above; conditions: 72 h
[11] = test system: normal primary NK cells, pool 1 (3 donors), resting (IL-2 0 ng/mL); assay: as above; conditions: 72 h
[12] = test system: KAI3 (IL-2 2.5 ng/mL); assay: as above; conditions: 72 h
[13] = test system: YT (IL-2 2.5 ng/mL); assay: as above; conditions: 72 h
[14] = test system: NK-92 (IL-2 2.5 ng/mL); assay: as above; conditions: 72 h
[15] = test system: IMC-1 (IL-2 20 ng/mL); assay: as above; conditions: 72 h
[16] = test system: NK-YS (IL-2 2.5 ng/mL); assay: percent inhibition of viability; higher = more inhibition; conditions: 72 h
[17] = test system: normal primary NK cells, pool 2 (3 donors) (IL-2 2.5 ng/mL); assay: as above; conditions: 72 h
[18] = test system: normal primary NK cells, pool 1 (3 donors) (IL-2 2.5 ng/mL); assay: as above; conditions: 72 h
[19] = test system: SNK-6 (IL-2 2.5 ng/mL); assay: as above; conditions: 72 h
[20] = test system: KHYG-1 (IL-2 2.5 ng/mL); assay: as above; conditions: 72 h
[21] = test system: DERL-7 (IL-2 2.5 ng/mL); assay: as above; conditions: 72 h
[22] = test system: normal primary NK cells, pool 3 (3 donors) (IL-2 2.5 ng/mL); assay: as above; conditions: 72 h
[23] = test system: NKL (IL-2 2.5 ng/mL); assay: as above; conditions: 72 h
[24] = test system: normal primary NK cells, pool 1 (3 donors), resting (IL-2 0 ng/mL); assay: as above; conditions: 72 h
[25] = test system: KAI3 (IL-2 2.5 ng/mL); assay: as above; conditions: 72 h
[26] = test system: YT (IL-2 2.5 ng/mL); assay: as above; conditions: 72 h
[27] = test system: NK-92 (IL-2 2.5 ng/mL); assay: as above; conditions: 72 h
[28] = test system: IMC-1 (IL-2 20 ng/mL); assay: as above; conditions: 72 h

Cc1c2oc3c(C)ccc(C(=O)N[C@@H]4C(=O)N[C@H](C(C)C)C(=O)N5CCC[C@H]5C(=O)N(C)CC(=O)N(C)[C@@H](C(C)C)C(=O)O[C@@H]4C)c3nc-2c(C(=O)N[C@@H]2C(=O)N[C@H](C(C)C)C(=O)N3CCC[C@H]3C(=O)N(C)CC(=O)N(C)[C@@H](C(C)C)C(=O)O[C@@H]2C)c(N)c1=O [Dactinomycin] (max concentration tested 1000 nM)
Conditions | drug sensitivity score
[1] | 22.2
[3] | 39.5
[4] | 25.3
[5] | 22
[6] | 38.1
[7] | 30.4
[8] | 33.6
[9] | 22.5
[10] | 38.8
[11] | 25.8
[12] | 26.6
[13] | 36.5
[14] | 18.8
[15] | 23.2

percent inhibition of viability [%]
Conditions | 0.1 nM | 1 nM | 10 nM | 100 nM | 1000 nM
[2] | 1.4 | 5.24 | 28.6 | 101 | 101
[16] | 5.62 | 72.3 | 94.4 | 106 | 107
[17] | -13.2 | 8.51 | 64.2 | 94.5 | 95.7
[18] | 5.89 | 7.37 | 35.9 | 98.4 | 98.6
[19] | 33.9 | 71.2 | 81.7 | 99.6 | 78.6
[20] | -3.25 | 36.4 | 71 | 106 | 108
[21] | -0.87 | 44.9 | 83 | 101 | 101
[22] | -10.8 | 5.15 | 39.6 | 98.5 | 99.8
[23] | -4.78 | 72.4 | 84.8 | 108 | 110
[24] | -15.9 | 13.6 | 67.8 | 91.7 | 90.8
[25] | -6.19 | 34.4 | 52.9 | 103 | 107
[26] | 0.56 | 51 | 97.4 | 107 | 108
[27] | -12.8 | -6.87 | 22 | 87.4 | 105
[28] | -6.77 | -14.7 | 38.1 | 100 | 101

Cc1cc(Nc2cc(CN3CCOCC3)c3nc(C)c(Cc4ccc(Cl)cc4F)n3n2)n[nH]1 [Gandotinib] (max concentration tested 10000 nM)
Conditions | drug sensitivity score
[1] | 20
[3] | 17.1
[4] | 11.1
[5] | 13
[6] | 18.8
[7] | 23.9
[8] | 21
[9] | 8.97
[10] | 20.4
[11] | 0.18
[12] | 22
[13] | 15
[14] | 18.3
[15] | 10.4

percent inhibition of viability [%]
Conditions | 1 nM | 10 nM | 100 nM | 1000 nM | 10000 nM
[2] | -0.65 | 3.87 | 25.1 | 89.6 | 70.5
[16] | 1.47 | 2.64 | 22.9 | 77.5 | 93.6
[17] | -11.3 | -5.04 | 11.2 | 50.9 | 52.6
[18] | -11.8 | -7.74 | 18.1 | 58.3 | 79.4
[19] | 6.62 | 7.51 | 9.98 | 95 | 87.1
[20] | 0.26 | 6.43 | 45.7 | 106 | 95.9
[21] | 2.64 | 12.5 | 31.3 | 96.2 | 100
[22] | -10.9 | -0.67 | 2.59 | 43.9 | 65.9
[23] | -9.53 | -6.03 | 52.5 | 77.8 | 71.9
[24] | -20.1 | -7.1 | 2.98 | -45.4 | 20.2
[25] | 8.43 | 12.9 | 45.1 | 92.9 | 82.2
[26] | 1.95 | -0.29 | 5.49 | 77.5 | 94.8
[27] | 4.87 | 11.2 | 20.5 | 86.5 | 96.2
[28] | -4.23 | -6.96 | -22.2 | 36.1 | 99.6
